Measurements as given in patent publication EP0638573A1, “Crystalline hydrates of cephalosporin and process for preparation thereof” (LUCKY LTD., priority 1993, dated 1995).
In brackets after ≈: the same amount, converted by molar mass. Read-outs that look alike come from different tables or passages of the source.

Assays:
[1] = system: Proteus vulgaris ATCC6059; assay: MIC, doubling dilution method (NCCLS), Muller-Hinton agar; type: cell-based; conditions: 20 hours at 37°C
Protocol: (§1) Antibiotic activities of the crystalline compound obtained in Example 1 were evaluated by way of determining the minimum inhibitory concentration(MIC) for the microorganisms listed in Table 2 in vitro.
(§2) The […] was determined in accordance with the doubling dilution method(NCCLS). After the test compound was dispersed in a Muller-Hinton agar medium, the medium was inoculated with 2µl of a test strain having 10⁷ CFU/ml and, then, incubated for 20 hours at 37°C.
(§3) For comparison, antibiotic abilities of the amorphous formula(I) cephalosporin obtained in Preparation Example were also determined as above; and are shown in Table 2.

[2] = system: Salmonella typhimurium ATCC14028; assay: as above; type: cell-based; conditions: 20 hours at 37°C
Protocol: as §1, §2, §3

[3] = system: Staphylococcus aureus ATCC10537; assay: as above; type: cell-based; conditions: 20 hours at 37°C
Protocol: as §1, §2, §3

[4] = system: Pseudomonas aeruginosa ATCC10145; assay: as above; type: cell-based; conditions: 20 hours at 37°C
Protocol: as §1, §2, §3

[5] = system: Morganella morganii ATCC8076h; assay: as above; type: cell-based; conditions: 20 hours at 37°C
Protocol: as §1, §2, §3

[6] = system: Escherichia coli ATCC10536; assay: as above; type: cell-based; conditions: 20 hours at 37°C
Protocol: as §1, §2, §3

[7] = system: Klebsiella pneumoniae ATCC10031; assay: as above; type: cell-based; conditions: 20 hours at 37°C
Protocol: as §1, §2, §3

[8] = system: Acinetobacter calcoaceticus ATCC15473; assay: as above; type: cell-based; conditions: 20 hours at 37°C
Protocol: as §1, §2, §3

[9] = system: Enterobacter cloacae ATCC27508; assay: as above; type: cell-based; conditions: 20 hours at 37°C
Protocol: as §1, §2, §3

[10] = system: Pseudomonas aeruginosa ATCC25619; assay: as above; type: cell-based; conditions: 20 hours at 37°C
Protocol: as §1, §2, §3

[11] = system: Streptococcus faecalis ATCC29212; assay: as above; type: cell-based; conditions: 20 hours at 37°C
Protocol: as §1, §2, §3

[12] = system: Escherichia coli ATCC25922; assay: as above; type: cell-based; conditions: 20 hours at 37°C
Protocol: as §1, §2, §3

[13] = system: Enterobacter aerogenes ATCC29751; assay: as above; type: cell-based; conditions: 20 hours at 37°C
Protocol: as §1, §2, §3

[14] = system: Proteus mirabilis ATCC25933; assay: as above; type: cell-based; conditions: 20 hours at 37°C
Protocol: as §1, §2, §3

[15] = system: Serratia marcescens ATCC27117; assay: as above; type: cell-based; conditions: 20 hours at 37°C
Protocol: as §1, §2, §3

[16] = system: Staphylococcus aureus ATCC6538p; assay: as above; type: cell-based; conditions: 20 hours at 37°C
Protocol: as §1, §2, §3

[17] = system: Providencia rettgeri ATCC9250; assay: as above; type: cell-based; conditions: 20 hours at 37°C
Protocol: as §1, §2, §3

[18] = system: Bacillus cereus ATCC11778; assay: as above; type: cell-based; conditions: 20 hours at 37°C
Protocol: as §1, §2, §3

[19] = system: Shigella flexneri ATCC11836; assay: as above; type: cell-based; conditions: 20 hours at 37°C
Protocol: as §1, §2, §3

[20] = system: Citrobacter freundii ATCC8090; assay: as above; type: cell-based; conditions: 20 hours at 37°C
Protocol: as §1, §2, §3

[21] = system: Pseudomonas aeruginosa ATCC27853; assay: as above; type: cell-based; conditions: 20 hours at 37°C
Protocol: as §1, §2, §3

[22] = system: Micrococcus luteus ATCC9341; assay: as above; type: cell-based; conditions: 20 hours at 37°C
Protocol: as §1, §2, §3

[23] = system: Streptococcus epidermidis ATCC12228; assay: as above; type: cell-based; conditions: 20 hours at 37°C
Protocol: as §1, §2, §3

[24] = system: Shigella sonnei ATCC11060; assay: as above; type: cell-based; conditions: 20 hours at 37°C
Protocol: as §1, §2, §3

[25] = Heat-stability test: storage at 50°C, decomposition by liquid chromatography; type: physicochemical
Protocol: The crystalline hydrate of the compound obtained in Example 1 and the amorphous cephalosporin obtained in Preparation Example were stored at 50°C. After the respective periods of one week and two weeks, the heat stability of the compounds was measured by determining their level of decomposition through the use of liquid chromatography.

[26] = system: Bacillus megaterium ATTCC9885; assay: MIC, doubling dilution method (NCCLS), Muller-Hinton agar; type: cell-based; conditions: Priestia megaterium, 20 hours at 37°C
Protocol: as §1, §2, §3

| Compound | MIC [1] | MIC [2] | MIC [6] | MIC [7] | MIC [8] | MIC [10] | MIC [12] | MIC [13] | MIC [15] | MIC [20] | MIC [21] | MIC [24] | Decomposition Rate ([25]; storage period (50°C): 0) | Decomposition Rate ([25]; storage period (50°C): 1 week) | Decomposition Rate ([25]; storage period (50°C): 2 week) | further results |
| --- | --- | --- | --- | --- | --- | --- | --- | --- | --- | --- | --- | --- | --- | --- | --- | --- |
| Cc1c(N)nc(SCC2=C(C(=O)[O-])N3C(=O)C(NC(=O)/C(=N\OC(C)(C)C(=O)O)c4csc(N)n4)[C@H]3SC2)[n+](N)c1N (stereo partly shown) [Amorphous Compound, 7-[(Z)-2-(2aminothiazole-4-yl)-2-(2-carboxyprop-2-oxyimino)acetamido]-3-(5-methyl-1,4,6-triamino-pyrimidinium-2-yl)thiomethyl-3-cephem-4-carboxylate, reference compound] | 0.063 µg/mL (≈ 0.0986 µM) | 0.13 µg/mL (≈ 0.204 µM) | 0.063 µg/mL (≈ 0.0986 µM) | 0.063 µg/mL (≈ 0.0986 µM) | 4 µg/mL (≈ 6.26 µM) | 2 µg/mL (≈ 3.13 µM) | 0.13 µg/mL (≈ 0.204 µM) | 1 µg/mL (≈ 1.57 µM) | 0.13 µg/mL (≈ 0.204 µM) | 0.063 µg/mL (≈ 0.0986 µM) | 2 µg/mL (≈ 3.13 µM) | 0.063 µg/mL (≈ 0.0986 µM) | 0% | 4.2% | 5.2% | MIC [3]: 2 µg/mL (≈ 3.13 µM); MIC [4]: 2 µg/mL (≈ 3.13 µM); MIC [5]: <=0.008 mcg/ml; MIC [9]: 0.016 µg/mL (≈ 0.0251 µM); MIC [11]: >128 µg/mL; MIC [14]: 0.031 µg/mL (≈ 0.0485 µM); MIC [16]: 4 µg/mL (≈ 6.26 µM); MIC [17]: <=0.008 mcg/ml; MIC [18]: 128 µg/mL (≈ 200 µM); MIC [19]: 0.031 µg/mL (≈ 0.0485 µM); MIC [22]: 0.5 µg/mL (≈ 0.783 µM); MIC [23]: 2 µg/mL (≈ 3.13 µM) |
| Cc1c(N)nc(SCC2=C(C(=O)[O-])N3C(=O)C(NC(=O)/C(=N\OC(C)(C)C(=O)O)c4csc(N)n4)[C@H]3SC2)[n+](N)c1N (stereo partly shown) [Test Compound, 7-[(Z)-2-(2-aminothiazole-4-yl)-2-(2-carboxyprop-2-oxyimino)acetamido]-3-(5-methyl-1,4,6-triaminopyrimidinium-2-yl)thiomethyl-3-cephem-4-carboxylate] | 0.031 µg/mL (≈ 0.0485 µM) | 0.063 µg/mL (≈ 0.0986 µM) | 0.031 µg/mL (≈ 0.0485 µM) | 0.016 µg/mL (≈ 0.0251 µM) | 1 µg/mL (≈ 1.57 µM) | 0.5 µg/mL (≈ 0.783 µM) | 0.031 µg/mL (≈ 0.0485 µM) | 0.25 µg/mL (≈ 0.391 µM) | 0.063 µg/mL (≈ 0.0986 µM) | 0.016 µg/mL (≈ 0.0251 µM) | 0.5 µg/mL (≈ 0.783 µM) | 0.031 µg/mL (≈ 0.0485 µM) | 0% | 0.4% | 0.9% | MIC ([3]; read-out: MIC): 2 µg/mL (≈ 3.13 µM); MIC ([4]; Pseudomonas aeruginosa, ATCC10145, 20 h, read-out: MIC): 1 µg/mL (≈ 1.57 µM); MIC ([5]; read-out: MIC): ≤ 0.008 µg/mL; MIC ([9]; Enterobacter cloacae, ATCC27508, 20 h, read-out: MIC): ≤ 0.008 µg/mL; MIC [26]: 0.13 µg/mL (≈ 0.204 µM); MIC ([11]; Enterococcus faecalis, read-out: MIC): > 128 µg/mL; MIC ([14]; Proteus mirabilis, ATCC25933, 20 h, read-out: MIC): 0.016 µg/mL (≈ 0.0251 µM); MIC ([16]; read-out: MIC): 4 µg/mL (≈ 6.26 µM); MIC ([17]; read-out: MIC): ≤ 0.008 µg/mL; MIC ([18]; Bacillus cereus, ATCC11778, 20 h, read-out: MIC): 64 µg/mL (≈ 100 µM); MIC ([19]; Shigella flexneri, ATCC11836, 20 h, read-out: MIC): 0.016 µg/mL (≈ 0.0251 µM); MIC ([22]; Micrococcus luteus, ATCC9341, 20 h, read-out: MIC): 0.25 µg/mL (≈ 0.391 µM); MIC ([23]; Streptococcus, ATCC12228, 20 h, read-out: MIC): 1 µg/mL (≈ 1.57 µM) |
